This passage reports Ki, IC50 and Kd results from ChEMBL document CHEMBL5150019, “Targeting Extracellular Signal-Regulated Protein Kinase 1/2 (ERK1/2) in Cancer: An Update on Pharmacological Small-Molecule Inhibitors” (J Med Chem, 2022).

pIC50, pKd, pKi: −log10 of the molar value.

Experiment [1] has as its target T1, Mitogen-activated protein kinase 3 (Homo sapiens, UniProt P27361). The experiment can be described thus: Binding affinity to ERK1 (unknown origin) measured after 20 mins in presence of [gamma33P]ATP by scintillation counter analysis.
In experiment [2] the target is T2, Mitogen-activated protein kinase 1 (Homo sapiens, UniProt P28482). The experiment can be described thus: Inhibition of ERK2 (unknown origin).
The target of experiment [3] is T1, Mitogen-activated protein kinase 3. The experiment can be described thus: Inhibition of ERK1 (unknown origin).
In experiment [4] the test system is MCF7. The experiment can be described thus: Antiproliferative activity in human MCF7 cells assessed as cell growth inhibition measured after 24 hrs by MTT assay. Type of experiment: functional, cell-based. The conditions noted are these: MCF7, 24 h.
The target of experiment [5] is Mitogen-activated protein kinase 1 (Rattus norvegicus, UniProt P63086). Put plainly: Binding affinity to rat full-length ERK2 using FQRKTLQRRNLKGLNLNL-XXX-TGPLSPGPF peptide as substrate in presence of [gamma33P]ATP by scintillation counter analysis.
A short description of experiment [6]: Antitumor activity against patient-derived Colorectal cancer cell xenografted in NMRI nu/nu mouse CXF-243 model assessed as cell growth inhibition. Conditions: Homo sapiens. Type of experiment: functional, cell-based.
The test system of experiment [7] is Lung cancer cell line. The experiment can be described thus: Antitumor activity against patient-derived Lung cancer cell line xenografted in NMRI nu/nu mouse LXFA-983 model assessed as cell growth inhibition. The conditions noted are these: Homo sapiens. Type of experiment: functional, cell-based.
Experiment [8] in a line: Antitumor activity against patient-derived Pancreatic cancer cell xenografted in NMRI nu/nu mouse PAXF-2059 model assessed as cell growth inhibition. In kind it is functional, cell-based. The conditions noted are these: Homo sapiens.
The subject of experiment [9] is UMUC3. The experiment can be described thus: Antiproliferative activity in human UMUC3 cells assessed as cell growth inhibition. In kind it is functional, cell-based.
The nature of experiment [10]: Antiproliferative activity in mouse MB49 cells assessed as cell growth inhibition. Type of experiment: functional, cell-based.
In experiment [11] the target is T2, Mitogen-activated protein kinase 1. Put plainly: Binding affinity to ERK2 (unknown origin).
The target in experiment [12] is T1, Mitogen-activated protein kinase 3. The experiment can be described thus: Binding affinity to ERK1 (unknown origin).

T2 sequence (P28482 whole entry): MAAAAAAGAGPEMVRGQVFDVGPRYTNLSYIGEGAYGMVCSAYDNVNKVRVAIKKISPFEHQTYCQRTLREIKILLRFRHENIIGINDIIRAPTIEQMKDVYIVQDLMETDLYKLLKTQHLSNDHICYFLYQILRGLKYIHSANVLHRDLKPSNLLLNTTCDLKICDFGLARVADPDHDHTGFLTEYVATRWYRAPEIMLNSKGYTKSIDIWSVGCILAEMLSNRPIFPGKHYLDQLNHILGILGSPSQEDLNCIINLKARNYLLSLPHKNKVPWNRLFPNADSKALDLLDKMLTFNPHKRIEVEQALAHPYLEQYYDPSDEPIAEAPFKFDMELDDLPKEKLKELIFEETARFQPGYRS
T1 sequence (P27361 whole entry): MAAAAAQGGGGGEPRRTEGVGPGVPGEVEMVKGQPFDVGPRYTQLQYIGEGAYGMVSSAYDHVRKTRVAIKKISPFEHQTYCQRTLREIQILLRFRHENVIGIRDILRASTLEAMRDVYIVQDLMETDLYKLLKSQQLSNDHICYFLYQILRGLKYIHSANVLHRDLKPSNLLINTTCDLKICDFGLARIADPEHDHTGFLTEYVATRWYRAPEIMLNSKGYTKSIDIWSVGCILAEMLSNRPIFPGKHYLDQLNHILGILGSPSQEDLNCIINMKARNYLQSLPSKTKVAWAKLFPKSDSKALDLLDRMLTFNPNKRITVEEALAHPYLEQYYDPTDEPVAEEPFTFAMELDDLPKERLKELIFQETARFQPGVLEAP
Sequence of Mitogen-activated protein kinase 1 (Rattus norvegicus, UniProt P63086) (P63086 whole entry): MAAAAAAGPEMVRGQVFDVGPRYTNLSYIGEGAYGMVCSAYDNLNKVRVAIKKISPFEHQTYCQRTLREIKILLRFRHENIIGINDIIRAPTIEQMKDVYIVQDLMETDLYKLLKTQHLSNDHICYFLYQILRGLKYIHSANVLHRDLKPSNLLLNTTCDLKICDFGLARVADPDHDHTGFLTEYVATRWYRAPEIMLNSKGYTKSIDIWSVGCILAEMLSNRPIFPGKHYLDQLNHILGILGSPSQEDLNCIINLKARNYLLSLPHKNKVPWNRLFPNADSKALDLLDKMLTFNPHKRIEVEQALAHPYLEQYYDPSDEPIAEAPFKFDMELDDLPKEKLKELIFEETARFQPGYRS

As for `CC(C)Nc1cc(-c2c[nH]c(C(=O)N[C@H](CO)c3cccc(Cl)c3)c2)c(Cl)cn1` [ULIXERTINIB], the pKi in experiment [1] is > 9.52.

As to `Cc1cnc(NC2CCOCC2)nc1-n1cnc(C(=O)N[C@H](CN)c2cc(F)cc(Cl)c2)c1` [ASN007], the pIC50 in experiment [2] and in experiment [3] was 8.70 in each case.

Consider `Clc1cc(Cl)cc(C(Cn2ccnc2)OCc2nc3ccccc3s2)c1` (stereo unspecified), for which the pIC50 in experiment [4] is 5.30.

Turning to `O=C1Nc2cc3[nH]nc(-c4ccncc4)c3cc2CN1Cc1ccccc1` [KO-947], the negative-log IC50 (pIC50) in [2] and in [3] was 8.00 throughout.

For `O=[N+]([O-])c1cnc(Sc2nnc(O)n2-c2ccc3c(c2)OCCO3)s1`, the pKi in experiment [5] was 5.64.

With `COc1ccc2[nH]cc(/C=C3\C(=O)Nc4ccc(NC(=O)CCN5CCCCC5)cc43)c2c1`, the pIC50 in [2] is 6.30.

As for `C=CC(=O)Nc1cc(C)ccc1Nc1nc(Nc2cc(OC)ncc2C)ncc1C(F)(F)F`, the pIC50 in experiment [2] is 8.00; in experiment [3], 8.00; in experiment [6], 6.23; in [7], 6.10; in experiment [8] it was 6.21.

In the case of `N=C(N)NC(=N)NCCc1ccccc1` [PHENFORMIN], the results for the pIC50 in [9] and in experiment [10] were 3.60 and 3.24, respectively.

Consider `N=C(N)NCCC[C@H]1CNC(=N)N1CCN(CCN1C[C@H](CCCNC(=N)N)N(CCCC2CCCCC2)C1=N)CCN1C[C@H](CCCNC(=N)N)N(CCc2cccc(Br)c2)C1=N`, for which the pIC50 in [2] was 5.00. Besides, the pKd in experiment [11] is 6.42.

As for `Cn1nccc1Nc1nccc(-c2cc3c(s2)C(C)(C)N(CCN2CCOCC2)C3=O)n1` [TEMUTERKIB], the pIC50 in experiment [2] and in experiment [3] was 8.30 throughout. Besides, the negative-log Ki (pKi) is 10.19 in experiment [11] and 9.19 in [12].
